Common to all, as to conditions: miR-155 inhibitor 100 nM, 24 h, vs scrambled miRNA
One series relates to Panc02 cells. The experiment in a line: MTT cell viability assay, Panc02. The series is classed as cell-based, mouse. As for the experimental part: (§1) The methyl thiazol tetrazolium (MTT) assay was performed as described previously^58. Briefly, MiaPaCa-2, Panc02 and UN-KC-6141 cells were seeded in 96-well plates at a density of 3000 cells/well and allowed to attach overnight. PC cells were then treated with API (40 μM) or DMSO (1%) as vehicle control for 24 h at 37° C. in 5% CO2 incubator. After 24 h, media was replaced with 20 μL of MTT (1 mg/mL) (Sigma-Aldrich) and incubated for 3 h at 37° C. in 5% CO2. MTT was replaced with DMSO, and absorbance was read at 570 nm.
(§2) MiaPaCa-2, Panc02 and UN-KC-6141 cells (2×10^5) were grown in 2 mL of growth medium in a 6-well tissue culture plate for 18-24 h until 60-80% confluency. The following solutions were prepared: Solution A) For each transfection, diluted 1 μL of miRNA-155 inhibitors (1 μM) (Table 2) or scrambled negative control miRNA (1 μM) (Qiagen, Germantown, MD, USA) into 50 μL Opti-MEM Transfection Medium (Invitrogen, Waltham, MA, USA). Solution B) For each transfection, diluted 3 μL of Hi-Perfect Transfection Reagent into 50 μL Opti-MEM Transfection Medium. Solution A was added directly to Solution B, mixed gently and the mixture incubated for 10-15 min at room temperature. […]
For orientation: Tetrazolium assays rely on reduction of a dye to a coloured formazan, in cell work by metabolically active cells.

Another series relates to UN-KC-6141 cells. The experiment in a line: MTT cell viability assay, UN-KC-6141. The series is classed as cell-based, mouse. As for the experimental part:
as §1, §2

The test system of series [1] is miR-155. The experiment in a line: miR-155 gene expression by RT-qPCR in UN-KC-6141 cells. The series is classed as cell-based, mouse. As for the experimental part:
(§3) MiR-155 is known to be overexpressed in different cancers, including PC^21, 23. The inventors first assessed whether apigenin could modulate the expression of miR-155 in PC cells. Murine PC cell lines Panc02 and UN-KC-6141 as well as the human PC cell line MiaPaCa-2 were treated with API (40 μM) or DMSO vehicle for 24 h and the expression of miR-155 was examined using RT-qPCR assay. […] Since API is known to inhibit the growth of cancer cells, including PC cells^39-43, 47-50, the same PC cell lines were treated with API (40 μM) or DMSO (vehicle) for 24 h and examined cell viability using MTT assay. […] Moreover, Panc02 and UN-KC-6141 cells were then treated with API at a dose dependent concentration (10, 20, 30, 40, 50 μM) and detected apoptosis using flow cytometry (Annexin V and PI).
(§4) miR-155 is implicated in the development of pancreatic tumors from pancreatic intraepithelial neoplasia (PanIN) lesions, and is overexpressed in PC^23. The inventors examined whether the depletion of miR-155 modulated PC viability. Murine and human PC cell lines were transfected with miR-155 inhibitor (i.e., MMU-MIR-155-5P/HSA-MIR-155-5P) and scrambled miRNA at a concentration of 100 nM for 24 h and cell viability determined using an MTT assay. The expression of miR-155 was examined using an RT-qPCR assay as well. […]
Background: In qPCR the cycle at which signal appears reflects the starting amount.

In series [2] the test system is miR-155. The experiment in a line: miR-155 gene expression by RT-qPCR in Panc02 cells. The class given is cell-based, mouse. The method, then:
as §3, §4

The subject of series [3] is miR-155. The experiment in a line: miR-155 gene expression by RT-qPCR in MiaPaCa-2 cells. The series is classed as cell-based, human. The method, then:
as §3, §4

The test system of another series is MiaPaCa-2 cells. The experiment in a line: MTT cell viability assay, MiaPaCa-2. The class given is cell-based, human. As for the experimental part:
as §1, §2

Take “MMU-MIR-155-5P: Qiagen miRCURY LNA miRNA inhibitor (mouse), sequence 5′-3′ CCCCTATCACAATTACCATT, SEQ ID NO: 1 (CCCCTATCACAATTAGCATT; LNA-modified commercial inhibitor, pattern not given here; listed 3' to 5'; listed as Mus musculus) [reference compound]”: the “cell viability (MTT)” value in the series with Panc02 cells and in the series with UN-KC-6141 cells was “suppressed” each time. Besides, the miR-155 gene expression result in the series on miR-155 [1] and in the series with miR-155 [2] was “significantly depleted” throughout.

“HSA-MIR-155-5P: Qiagen miRCURY LNA miRNA inhibitor (human), sequence 5′-3′ CCTATCACGATTAGCATT, SEQ ID NO: 2 (LNA-modified commercial inhibitor, pattern not given here; listed 3' to 5'; listed as Homo sapiens) [reference compound]”: the miR-155 gene expression result in the series with miR-155 [3] was “significantly depleted”. Also, the “cell viability (MTT)” value in the series on MiaPaCa-2 cells is given as “suppressed”.

Source of the values: US20240415804A1, “METHOD OF TREATING PANCREATIC CANCER” (University of South Florida, priority 2022, published 2024).
